Data from PubChem BioAssay (NCI).
Where “and” joins values, the source holds several entries; their conditions need not be identical. Equal entries are not always repeated.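 Where inhibition never reached the appropriate level, the endpoint shown equals the highest concentration tested. Otherwise, values were interpolated linearly from a five-concentration, 48-hour dose response in 96-well plates. GI50 marks 50% less growth. TGI: total growth inhibition.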

Legend:
Test in all cases: NCI-60 cell line screen, 48 h
HCT-15 colon = tested on: HCT-15 colon
CCRF-CEM leukemia = tested on: CCRF-CEM leukemia
HS 578T breast = tested on: HS 578T breast
TK-10 renal = tested on: TK-10 renal
SNB-19 CNS = tested on: SNB-19 CNS
COLO 205 colon = tested on: COLO 205 colon
OVCAR-8 ovarian = tested on: OVCAR-8 ovarian
T-47D breast = tested on: T-47D breast
DU-145 prostate = tested on: DU-145 prostate
RPMI-8226 leukemia = tested on: RPMI-8226 leukemia

SMILES	TGI (HCT-15 colon)	TGI (CCRF-CEM leukemia)	TGI (HS 578T breast)	TGI (TK-10 renal)	TGI (SNB-19 CNS)	TGI (COLO 205 colon)	TGI (OVCAR-8 ovarian)	TGI (T-47D breast)	TGI (DU-145 prostate)	TGI (RPMI-8226 leukemia)	GI50 (RPMI-8226 leukemia)	GI50 (HCT-15 colon)	GI50 (CCRF-CEM leukemia)	GI50 (HS 578T breast)	GI50 (TK-10 renal)	GI50 (SNB-19 CNS)	GI50 (COLO 205 colon)	GI50 (OVCAR-8 ovarian)	GI50 (T-47D breast)	GI50 (DU-145 prostate)
C(/Cc1ccc2c(c1)OCO2)=N\NC1=NCCCN1	> 100 µM	> 100 µM	> 100 µM	> 100 µM	> 100 µM	> 100 µM	> 100 µM	> 100 µM	> 100 µM	> 100 µM	–	–	–	–	–	–	–	–	–	–
Cc1ccc(-c2n[nH]c(=O)n2/N=C\c2ccccc2)cc1	> 100 µM	> 100 µM	81.3 µM	> 100 µM	> 100 µM	> 100 µM	> 100 µM	> 100 µM	> 100 µM	> 100 µM	–	–	–	–	–	–	–	–	–	–
CCN(CC)c1ccc2cc(-c3nc4ccccc4c(=O)[nH]3)c(=N)oc2c1	> 100 µM	> 100 µM	> 100 µM	> 100 µM	> 100 µM	> 100 µM	> 100 µM	> 100 µM	> 100 µM	> 100 µM	–	–	–	–	–	–	–	–	–	–
O=C1c2ccccc2-c2[nH]c3cn[nH]c(=O)c3c21	> 100 µM	> 100 µM	> 100 µM	> 100 µM	> 100 µM	> 100 µM	> 100 µM	> 100 µM	> 100 µM	> 100 µM	–	–	–	–	–	–	–	–	–	–
N#Cc1nc(C#N)n(C(=O)c2ccccc2)c1NC(=O)c1ccccc1	> 100 µM	> 100 µM	> 100 µM	> 100 µM	> 100 µM	> 100 µM	> 100 µM	> 100 µM	> 100 µM	> 100 µM	–	–	–	–	–	–	–	–	–	–
C/C(Nc1ccc(Cl)cc1Cl)=C1/CCOC1=O	> 100 µM	> 100 µM	73.8 µM	> 100 µM	67.1 µM	> 100 µM	> 100 µM	> 100 µM	> 100 µM	> 100 µM	–	–	–	–	–	–	–	–	–	–
O=[N+]([O-])c1ccc(C(Nc2ccccc2)c2ccc3cccnc3c2O)cc1 (stereo unspecified)	> 100 µM	> 22.2 µM	> 71.7 µM	68.8 µM	> 100 µM	45.6 µM	52.3 µM	44.4 µM	> 100 µM	38.5 µM	–	–	–	–	–	–	–	–	–	–
Cc1ccc(/C(O)=C/c2nc3ccc([N+](=O)[O-])cc3nc2/C=C(\O)c2ccc(C)cc2)cc1	> 100 µM	> 100 µM	> 91.4 µM	> 100 µM	> 77.1 µM	> 100 µM	> 100 µM	> 100 µM	> 100 µM	> 100 µM	–	–	–	–	–	–	–	–	–	–
CSc1ccc(/C=C2\N=C(c3ccccc3)N(/N=C/c3cc4cc(C)ccc4nc3Cl)C2=O)cc1	96.5 µM	> 100 µM	65.9 µM	33.5 µM	43.1 µM	39.4 µM	42.4 µM	91 µM	36 µM	> 100 µM	–	–	–	–	–	–	–	–	–	–
O=C(/C=C/c1cccs1)c1ccccc1Cl	33.4 µM	33.9 µM	35.5 µM	32.3 µM	28.9 µM	38.6 µM	> 100 µM	22.8 µM	26.4 µM	61.9 µM	–	–	–	–	–	–	–	–	–	–
Cc1[nH]c(=O)[nH]c(=S)c1C(=O)Nc1cccc2cc3ccccc3cc12	> 100 µM	> 100 µM	> 100 µM	> 100 µM	> 100 µM	> 100 µM	> 100 µM	> 100 µM	> 100 µM	> 100 µM	–	–	–	–	–	–	–	–	–	–
CC1OC2OC3C(OCC(O)C3O)OC(=O)[C@]34CCC(C)(C)CC3C3=CCC5[C@@]6(C)C[C@H](O)[C@H](OC7OC(CO)C(O)C(O)C7OC7OCC(OC(=O)CC(C)(O)CC(=O)OC1C(OC1OC(CO)C(O)C(O)C1O)C2O)C(O)C7O)[C@@](C)(CO)C6CC[C@@]5(C)[C@]3(C)CC4 (stereo partly specified)	22.5 µM	28 µM	30.1 µM	21.1 µM	22.9 µM	7.61 µM	23.6 µM	20.3 µM	17.3 µM	25.2 µM	–	–	–	–	–	–	–	–	–	–
NCCOCC(N)C(=O)O (stereo unspecified)	> 100 µM	> 100 µM	> 100 µM	> 100 µM	> 100 µM	> 100 µM	> 100 µM	> 100 µM	> 100 µM	> 100 µM	39.1 µM and > 100 µM	–	–	–	–	–	–	–	–	–
CN1C(=O)C(O)CC1c1cccc(C(F)(F)F)c1 (stereo unspecified)	> 100 µM	> 100 µM	> 100 µM	> 100 µM	> 100 µM	> 100 µM	> 100 µM	> 100 µM	> 100 µM	> 100 µM	–	–	–	–	–	–	–	–	–	–
COC(=O)[C@@H]1CN(C(=O)c2ccccc2)C(=O)N1C(=O)OCc1ccccc1	> 100 µM	> 100 µM	> 100 µM	> 100 µM	> 100 µM	> 100 µM	> 100 µM	> 100 µM	> 100 µM	> 100 µM	–	–	–	–	–	–	–	–	–	–
Cc1cc2c(c(=O)n1C)SCC2	> 100 µM	> 100 µM	> 100 µM	> 100 µM	> 100 µM	> 100 µM	> 100 µM	> 100 µM	> 100 µM	> 100 µM	–	–	–	–	–	–	–	–	–	–
c1ccc(-c2nnn(CCN3CCCCC3)n2)cc1	> 100 µM	> 100 µM	> 100 µM	> 100 µM	> 100 µM	> 100 µM	> 100 µM	> 100 µM	> 100 µM	> 100 µM	–	–	–	–	–	–	–	–	–	–
COc1ccc(-c2cc(C(O)C3CCCCN3)c3ccccc3n2)cc1 (stereo unspecified)	34.2 µM	9.08 µM	40.3 µM	23.7 µM	28.1 µM	3.54 µM	29.5 µM	14.1 µM	20.5 µM	5.82 µM	–	–	–	–	–	–	–	–	–	–
Cc1ccc(S(=O)(=O)N(CC(O)COc2ccccc2)c2ccc(F)cc2F)cc1 (stereo unspecified)	30.8 µM	53.8 µM	39.9 µM	45.9 µM	41.9 µM	28.6 µM	31.3 µM	46.4 µM	46.9 µM	34.5 µM	–	–	–	–	–	–	–	–	–	–
O=C(Nc1cccc(-n2cc(-c3ccncc3)c(-c3ccc(O)c(Cl)c3)n2)c1)c1cccc(C(F)(F)F)c1	> 100 µM	> 100 µM	> 100 µM	> 100 µM	> 100 µM	72.9 µM	> 100 µM	> 100 µM	> 100 µM	10.6 µM	2.04 µM	1.98 µM	1.88 µM	2.26 µM	7.18 µM	9.36 µM	13 µM	3.89 µM	3 µM	6.52 µM
N/C(=N\Nc1ccc(S(N)(=O)=O)cc1)c1cnccn1	> 100 µM	> 100 µM	> 100 µM	> 100 µM	> 100 µM	> 100 µM	> 100 µM	> 100 µM	> 100 µM	> 100 µM	–	–	–	–	–	–	–	–	–	–
COC(=O)CCCC(=O)NC1=C(NCc2ccccc2)C(=O)c2ccccc2C1=O	> 100 µM	> 100 µM	> 100 µM	> 100 µM	> 100 µM	> 100 µM	> 100 µM	> 100 µM	> 100 µM	> 100 µM	–	–	–	–	–	–	–	–	–	–
CCC(CC(C)C)Nc1ccc(NC(CC)CC(C)C)cc1 (stereo unspecified)	27.9 µM	27.8 µM	> 100 µM	32.3 µM	29.4 µM	23 µM	34.2 µM	26.7 µM	82.1 µM	18.5 µM	3.85 µM	14.8 µM	6.6 µM	25 µM	17.7 µM	15.9 µM	11 µM	18.2 µM	12.7 µM	26.5 µM
CC(C)C1(O)C(=O)N(c2c(F)c(F)c(F)c(F)c2F)C(=S)N1CCSc1ccccc1 (stereo unspecified)	33 µM	31.7 µM	39.7 µM	27.9 µM	31.9 µM	32.9 µM	33.8 µM	33.6 µM	30.9 µM	28.7 µM	–	–	–	–	–	–	–	–	–	–
